# Measured values as given in ChEMBL document CHEMBL5465560, “Selectivity Literature for EUbOPEN Chemogenomic Library” (2024).
# How the values were obtained:
# [1] = target: BDNF/NT-3 growth factors receptor (Homo sapiens) (UniProt Q16620); test: Selectivity interaction (KinaseProfiler screening (Millipore)) EUB0000601a NTRK2; settings: at 3 µM
# [2] = target: T1, Phosphatidylinositol 5-phosphate 4-kinase type-2 beta (Homo sapiens) (UniProt P78356); settings: at 10 µM
# T1 sequence (whole entry): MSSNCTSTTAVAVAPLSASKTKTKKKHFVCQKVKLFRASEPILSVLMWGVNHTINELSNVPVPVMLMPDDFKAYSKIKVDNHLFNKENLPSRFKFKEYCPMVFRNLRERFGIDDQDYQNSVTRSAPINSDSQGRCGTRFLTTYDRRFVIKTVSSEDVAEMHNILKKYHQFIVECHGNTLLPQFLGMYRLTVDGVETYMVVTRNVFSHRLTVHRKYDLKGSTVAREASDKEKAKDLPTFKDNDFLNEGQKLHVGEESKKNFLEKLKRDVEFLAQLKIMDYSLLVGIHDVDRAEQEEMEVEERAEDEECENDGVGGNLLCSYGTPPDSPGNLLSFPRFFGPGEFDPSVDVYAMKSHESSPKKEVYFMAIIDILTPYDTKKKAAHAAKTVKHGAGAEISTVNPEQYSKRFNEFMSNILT
# [3] = target: Mitogen-activated protein kinase kinase kinase 11 (Homo sapiens) (UniProt Q16584); test: Selectivity interaction (Ambit KINOMEscan and KiNATiv profiling in Jurkat cells) EUB0000090b MAP3K11; assay type: cell-based; settings: at 1 µM
# Mitogen-activated protein kinase kinase kinase 11 (Homo sapiens), sequence (Q16584 whole entry, looked up): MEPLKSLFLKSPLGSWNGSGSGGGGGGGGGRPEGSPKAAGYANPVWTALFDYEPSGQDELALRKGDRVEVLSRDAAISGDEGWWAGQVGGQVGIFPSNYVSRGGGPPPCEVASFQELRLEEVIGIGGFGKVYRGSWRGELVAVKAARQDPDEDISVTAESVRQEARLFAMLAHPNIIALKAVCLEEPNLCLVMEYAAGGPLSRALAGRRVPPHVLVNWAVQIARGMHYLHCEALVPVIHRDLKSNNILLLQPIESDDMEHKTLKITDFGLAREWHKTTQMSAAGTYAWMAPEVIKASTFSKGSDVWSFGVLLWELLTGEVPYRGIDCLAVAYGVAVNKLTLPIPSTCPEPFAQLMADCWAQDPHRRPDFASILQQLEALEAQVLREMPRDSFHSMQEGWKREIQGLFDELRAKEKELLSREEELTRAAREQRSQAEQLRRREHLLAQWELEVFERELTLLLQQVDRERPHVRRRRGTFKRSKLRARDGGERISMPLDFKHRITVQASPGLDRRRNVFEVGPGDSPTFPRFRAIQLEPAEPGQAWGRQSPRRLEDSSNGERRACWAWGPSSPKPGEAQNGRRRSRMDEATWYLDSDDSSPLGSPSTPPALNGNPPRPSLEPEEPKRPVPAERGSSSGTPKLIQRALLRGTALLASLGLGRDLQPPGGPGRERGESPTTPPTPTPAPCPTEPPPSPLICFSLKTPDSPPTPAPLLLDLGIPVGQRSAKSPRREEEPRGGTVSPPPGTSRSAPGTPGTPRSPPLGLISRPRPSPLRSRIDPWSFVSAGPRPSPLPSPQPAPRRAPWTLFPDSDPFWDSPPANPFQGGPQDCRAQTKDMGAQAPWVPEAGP
# [4] = target: 5'-AMP-activated protein kinase catalytic subunit alpha-1 (Homo sapiens, UniProt Q13131); test: Selectivity interaction (KinomeScan (DiscoverX)) EUB0001079a PRKAA1; settings: at 1 µM
# 5'-AMP-activated protein kinase catalytic subunit alpha-1, sequence (Q13131 whole entry, looked up): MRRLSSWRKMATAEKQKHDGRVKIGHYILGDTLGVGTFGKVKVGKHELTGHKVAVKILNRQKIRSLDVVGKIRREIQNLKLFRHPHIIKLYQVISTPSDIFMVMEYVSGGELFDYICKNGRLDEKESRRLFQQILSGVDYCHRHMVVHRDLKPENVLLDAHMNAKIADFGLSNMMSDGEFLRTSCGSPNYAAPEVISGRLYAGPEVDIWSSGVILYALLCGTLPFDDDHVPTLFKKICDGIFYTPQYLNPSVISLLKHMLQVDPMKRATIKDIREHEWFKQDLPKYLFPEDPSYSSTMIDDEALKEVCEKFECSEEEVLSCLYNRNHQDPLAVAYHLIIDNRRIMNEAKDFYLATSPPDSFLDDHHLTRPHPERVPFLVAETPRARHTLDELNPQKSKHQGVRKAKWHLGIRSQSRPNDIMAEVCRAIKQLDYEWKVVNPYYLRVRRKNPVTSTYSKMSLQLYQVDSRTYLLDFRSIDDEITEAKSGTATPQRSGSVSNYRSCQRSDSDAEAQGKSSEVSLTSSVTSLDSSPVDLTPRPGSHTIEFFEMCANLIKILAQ
# [5] = target: Serine/threonine-protein kinase 25 (Homo sapiens) (UniProt O00506); test: Selectivity interaction (KinomeScan (DiscoverX)) EUB0001079a STK25; settings: at 1 µM
# Serine/threonine-protein kinase 25 (Homo sapiens), sequence (O00506 whole entry, looked up): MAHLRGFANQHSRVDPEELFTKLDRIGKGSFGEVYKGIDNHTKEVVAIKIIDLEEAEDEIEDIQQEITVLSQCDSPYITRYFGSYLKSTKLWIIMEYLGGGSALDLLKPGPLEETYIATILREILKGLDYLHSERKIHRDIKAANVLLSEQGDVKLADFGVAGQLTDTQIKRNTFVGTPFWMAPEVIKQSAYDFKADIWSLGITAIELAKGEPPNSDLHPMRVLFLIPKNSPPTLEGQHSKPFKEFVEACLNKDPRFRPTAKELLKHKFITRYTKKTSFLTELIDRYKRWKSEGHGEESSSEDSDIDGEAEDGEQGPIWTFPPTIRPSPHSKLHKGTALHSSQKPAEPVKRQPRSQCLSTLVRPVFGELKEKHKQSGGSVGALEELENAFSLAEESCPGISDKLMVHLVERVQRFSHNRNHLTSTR
# [6] = target: T2, Calcium/calmodulin-dependent protein kinase type IV (Homo sapiens) (UniProt Q16566); test: Selectivity interaction (SelectScreen profiling (Invitrogen)) EUB0000607a CAMK4; settings: at 2 µM
# T2 sequence (whole entry): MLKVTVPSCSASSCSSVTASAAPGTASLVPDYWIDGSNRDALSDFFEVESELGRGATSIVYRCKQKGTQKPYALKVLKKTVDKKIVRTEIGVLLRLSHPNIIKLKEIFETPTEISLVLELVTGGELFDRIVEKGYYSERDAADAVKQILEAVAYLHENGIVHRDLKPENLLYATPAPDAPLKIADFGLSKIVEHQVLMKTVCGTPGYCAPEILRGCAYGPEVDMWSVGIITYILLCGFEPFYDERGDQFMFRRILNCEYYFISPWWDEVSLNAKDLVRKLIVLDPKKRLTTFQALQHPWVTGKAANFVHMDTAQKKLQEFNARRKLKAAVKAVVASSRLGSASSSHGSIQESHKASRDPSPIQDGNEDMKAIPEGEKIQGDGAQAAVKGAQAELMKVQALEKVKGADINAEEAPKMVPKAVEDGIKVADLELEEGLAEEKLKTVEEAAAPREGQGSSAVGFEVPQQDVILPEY
# Misshapen-like kinase 1 = Misshapen-like kinase 1 (Homo sapiens, UniProt Q8N4C8); test: Selectivity interaction (KinomeScan (DiscoverX)) EUB0001619a MINK1; settings: at 1 µM
# [7] = target: Serine/threonine-protein kinase B-raf (Homo sapiens) (UniProt P15056); test: Selectivity interaction (Kinase panel (Invitrogen)) EUB0000639a BRAF; settings: at 200 nM
# Serine/threonine-protein kinase B-raf (Homo sapiens), sequence (P15056 whole entry): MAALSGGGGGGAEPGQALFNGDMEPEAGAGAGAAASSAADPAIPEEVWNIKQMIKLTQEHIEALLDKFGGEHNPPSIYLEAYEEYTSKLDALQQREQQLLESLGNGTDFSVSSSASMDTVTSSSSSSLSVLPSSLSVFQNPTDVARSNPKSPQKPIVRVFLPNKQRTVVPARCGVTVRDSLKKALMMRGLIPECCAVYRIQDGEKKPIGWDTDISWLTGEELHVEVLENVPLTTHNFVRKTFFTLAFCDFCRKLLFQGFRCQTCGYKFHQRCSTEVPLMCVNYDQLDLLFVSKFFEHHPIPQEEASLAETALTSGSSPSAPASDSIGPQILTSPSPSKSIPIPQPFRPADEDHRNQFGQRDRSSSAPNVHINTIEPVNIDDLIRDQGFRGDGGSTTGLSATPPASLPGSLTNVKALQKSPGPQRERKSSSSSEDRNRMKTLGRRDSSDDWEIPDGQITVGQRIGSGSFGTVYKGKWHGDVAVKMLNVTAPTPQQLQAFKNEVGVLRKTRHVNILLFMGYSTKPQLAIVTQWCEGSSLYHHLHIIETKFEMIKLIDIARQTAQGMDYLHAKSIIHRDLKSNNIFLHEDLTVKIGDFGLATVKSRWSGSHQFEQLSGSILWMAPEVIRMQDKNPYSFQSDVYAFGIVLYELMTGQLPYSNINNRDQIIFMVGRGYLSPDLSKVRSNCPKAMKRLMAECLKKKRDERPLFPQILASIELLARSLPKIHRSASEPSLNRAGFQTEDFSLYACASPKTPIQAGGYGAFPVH
# [8] = target: Serine/threonine-protein kinase N2 (Homo sapiens, UniProt Q16513); test: Selectivity interaction (ActivX KiNativ screen (kinase selectivity in THP-1 cell lysates)) EUB0000639a PKN2; assay type: subcellular; settings: lysate
# Serine/threonine-protein kinase N2, sequence (Q16513 whole entry, looked up): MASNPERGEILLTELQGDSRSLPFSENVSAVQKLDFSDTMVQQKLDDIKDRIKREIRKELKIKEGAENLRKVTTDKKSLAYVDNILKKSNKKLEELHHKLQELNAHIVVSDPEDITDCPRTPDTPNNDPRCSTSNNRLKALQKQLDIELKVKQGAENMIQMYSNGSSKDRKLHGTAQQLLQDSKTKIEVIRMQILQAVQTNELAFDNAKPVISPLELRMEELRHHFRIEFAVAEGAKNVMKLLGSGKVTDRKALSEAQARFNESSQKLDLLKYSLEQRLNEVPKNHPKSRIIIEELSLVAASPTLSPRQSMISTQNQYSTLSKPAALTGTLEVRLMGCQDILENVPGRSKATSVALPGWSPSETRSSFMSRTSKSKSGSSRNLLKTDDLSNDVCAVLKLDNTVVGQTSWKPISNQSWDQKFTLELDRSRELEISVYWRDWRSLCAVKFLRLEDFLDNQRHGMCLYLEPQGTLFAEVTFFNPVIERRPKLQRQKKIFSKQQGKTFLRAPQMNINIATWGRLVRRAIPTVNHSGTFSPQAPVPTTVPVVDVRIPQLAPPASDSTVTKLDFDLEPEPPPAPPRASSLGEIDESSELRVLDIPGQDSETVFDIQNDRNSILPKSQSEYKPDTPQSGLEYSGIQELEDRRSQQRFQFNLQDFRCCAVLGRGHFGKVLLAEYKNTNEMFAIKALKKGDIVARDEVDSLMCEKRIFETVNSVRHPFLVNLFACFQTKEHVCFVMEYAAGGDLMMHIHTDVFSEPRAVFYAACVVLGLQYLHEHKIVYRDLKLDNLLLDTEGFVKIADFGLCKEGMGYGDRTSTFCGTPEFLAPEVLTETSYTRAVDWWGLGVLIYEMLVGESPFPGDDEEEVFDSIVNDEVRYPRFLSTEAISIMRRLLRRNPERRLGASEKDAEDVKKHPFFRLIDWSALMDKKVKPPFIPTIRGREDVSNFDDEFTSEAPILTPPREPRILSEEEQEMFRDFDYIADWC
# [9] = target: T3, Serine/threonine-protein kinase 17A (Homo sapiens) (UniProt Q9UEE5); test: Selectivity interaction (KinomeScan (DiscoverX)) EUB0001049a STK17A; settings: at 1 µM
# T3 sequence (whole entry): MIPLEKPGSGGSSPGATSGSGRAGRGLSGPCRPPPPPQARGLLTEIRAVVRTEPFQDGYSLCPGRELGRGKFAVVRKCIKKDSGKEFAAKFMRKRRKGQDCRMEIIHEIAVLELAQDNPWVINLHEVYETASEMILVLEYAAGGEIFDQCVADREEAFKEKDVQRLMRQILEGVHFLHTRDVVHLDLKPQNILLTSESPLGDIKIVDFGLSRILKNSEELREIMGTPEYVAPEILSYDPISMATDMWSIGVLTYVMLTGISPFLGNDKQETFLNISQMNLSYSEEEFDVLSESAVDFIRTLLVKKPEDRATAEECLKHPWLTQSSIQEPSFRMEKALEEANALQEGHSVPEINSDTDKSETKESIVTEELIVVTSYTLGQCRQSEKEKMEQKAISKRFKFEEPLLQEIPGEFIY
# [10] = target: T4, Serine/threonine-protein kinase TBK1 (Homo sapiens) (UniProt Q9UHD2); test: Selectivity interaction (Kinase screening (Nanosyn)) EUB0000604a TBK1
# T4 sequence (whole entry): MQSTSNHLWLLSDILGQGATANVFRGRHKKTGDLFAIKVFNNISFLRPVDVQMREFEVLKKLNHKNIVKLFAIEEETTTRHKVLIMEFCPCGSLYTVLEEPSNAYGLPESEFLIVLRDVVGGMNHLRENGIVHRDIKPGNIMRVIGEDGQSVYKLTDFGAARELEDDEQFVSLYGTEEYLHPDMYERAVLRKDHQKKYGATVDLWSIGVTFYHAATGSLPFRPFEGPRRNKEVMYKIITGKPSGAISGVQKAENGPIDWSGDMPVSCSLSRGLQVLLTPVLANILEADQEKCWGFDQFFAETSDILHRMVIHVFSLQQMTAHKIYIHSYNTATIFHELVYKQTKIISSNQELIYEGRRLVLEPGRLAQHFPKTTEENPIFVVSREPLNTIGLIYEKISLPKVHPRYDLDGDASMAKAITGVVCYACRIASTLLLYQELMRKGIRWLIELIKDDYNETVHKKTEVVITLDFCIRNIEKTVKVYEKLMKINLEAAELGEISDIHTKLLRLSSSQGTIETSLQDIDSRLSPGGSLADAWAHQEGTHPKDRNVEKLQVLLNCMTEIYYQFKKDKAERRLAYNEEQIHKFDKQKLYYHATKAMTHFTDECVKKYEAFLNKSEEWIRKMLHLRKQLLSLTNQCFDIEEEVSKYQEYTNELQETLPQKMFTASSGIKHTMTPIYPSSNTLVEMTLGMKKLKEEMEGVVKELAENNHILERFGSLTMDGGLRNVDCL
# BDNF/NT-3 growth factors receptor (Homo sapiens), sequence (Q16620 32-822 limits assumed): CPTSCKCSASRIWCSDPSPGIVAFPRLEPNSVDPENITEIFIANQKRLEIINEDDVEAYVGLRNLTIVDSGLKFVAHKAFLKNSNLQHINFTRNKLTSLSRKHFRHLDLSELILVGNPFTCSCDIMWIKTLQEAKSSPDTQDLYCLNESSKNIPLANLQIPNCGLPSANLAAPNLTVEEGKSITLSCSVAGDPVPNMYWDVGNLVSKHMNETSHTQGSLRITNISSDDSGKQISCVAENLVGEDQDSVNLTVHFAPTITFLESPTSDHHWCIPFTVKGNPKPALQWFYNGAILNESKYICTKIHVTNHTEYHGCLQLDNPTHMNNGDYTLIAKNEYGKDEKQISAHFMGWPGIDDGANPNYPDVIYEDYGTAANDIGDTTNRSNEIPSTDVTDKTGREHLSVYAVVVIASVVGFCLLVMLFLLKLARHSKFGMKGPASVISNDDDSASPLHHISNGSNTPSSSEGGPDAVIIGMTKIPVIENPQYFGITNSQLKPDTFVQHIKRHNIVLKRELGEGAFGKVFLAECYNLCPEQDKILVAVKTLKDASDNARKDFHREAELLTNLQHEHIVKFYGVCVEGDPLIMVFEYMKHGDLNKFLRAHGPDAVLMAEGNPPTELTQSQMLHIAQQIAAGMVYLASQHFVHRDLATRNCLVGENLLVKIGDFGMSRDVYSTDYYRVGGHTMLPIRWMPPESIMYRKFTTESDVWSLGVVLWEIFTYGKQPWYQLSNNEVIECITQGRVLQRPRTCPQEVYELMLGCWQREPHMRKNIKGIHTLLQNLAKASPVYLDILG
compound,measurement,setting,value
CCc1cc(Nc2nccc(-c3c(-c4ccc(OC)c(C(=O)Nc5c(F)cccc5F)c4)nc4ccccn34)n2)c(OC)cc1N1CCC(N2CCN(S(C)(=O)=O)CC2)CC1,% of inhibition,[1],47%
CCN(CC)CCCCNc1ncc2cc(-c3cc(OC)cc(OC)c3)c(NC(=O)NC(C)(C)C)nc2n1,% of control,[2],100%
CN(C)C/C=C/C(=O)Nc1ccc(C(=O)N2CCCC(Nc3ncc(Cl)c(-c4c[nH]c5ccccc45)n3)C2)cc1 (stereo not given),% of control,[3],84%
Nc1cnc(N2CCc3cc(S(=O)(=O)Nc4c(F)cc(Cl)cc4F)cc(N4CCCC4=O)c32)nc1 [TP-020n],% of control,[4],100%
same,% of control,[5],88%
CNC(=O)Nc1ccc(-c2nc(N3CC4CCC(C3)O4)c3cnn(C4CCC5(CC4)OCCO5)c3n2)cc1,% of inhibition,[6],-1%
N#Cc1cccc(-c2c[nH]c3ncnc(N4CCOCC4)c23)c1,% of control,Misshapen-like kinase 1,46%
CC[C@@H]1[C@H](F)C(=O)N[C@@H]1COc1nccc2cc(C(N)=O)c(OC)cc12 [ZIMLOVISERTIB],% of inhibition,[7],2.21%
same,% of inhibition,[8]; at 0.01 µM,-6.1%
same,% of inhibition,[8]; at 0.04 µM,-5.7%
same,% of inhibition,[8]; at 0.2 µM,2.9%
same,% of inhibition,[8]; at 1 µM,18.9%
same,% of inhibition,[8]; at 5 µM,-9.1%
COc1cc(Nc2nc(C)cc(-c3cnn4nc(OC)ccc34)n2)cc(C(F)(F)F)c1,% of control,[9],66%
Cc1cnc(Nc2ccc(F)cc2Cl)nc1-c1c[nH]c(C(=O)N[C@H](CO)c2cccc(Cl)c2)c1,% of inhibition,[10],3%
